# Experimental data reported in patent US10519147B2 (Merck Sharp & Dohme Corp., priority 2015, dated 2019).
# Target: T1, human Nav1.7 (Homo sapiens, UniProt Q15858)
# T1 construct: expressed in transfected cells; host or cells: HEK 293
# Test: IonWorks Quattro automated patch-clamp, inactivated state block of Nav1.7
# Assay type: cell-based
# Settings: not given
# Protocol: Compounds were tested on human Nav1.7 and Nav1.5 channels stably expressed in HEK 293 cells. […] Cells were sealed on a planar substrate using the Population Patch […] (PPC) technology. Electrical access was obtained using both nystatin and amphotericin. A double-pulse protocol was used for the determination of IC50 values for inactivated state block. Nav1.7 and Nav1.5 expressing cells were voltage clamped at −100 mV and −110 mV, respectively. A depolarizing prepulse to −10 mV (Nav1.7) or −30 mV (Nav1.5) for 1000 ms followed by a 10 ms repolarization to −100 mV (Nav1.7) or −110 mV (Nav1.5) was given to generate fractional channel inactivation of 50%, followed by a 10 ms test pulse to −10 mV (Nav1.7) or −30 mV (Nav1.5) to measure peak current in control conditions and after compound addition. The following recording solutions were used (mM). External: 150 NaCl, 2 CaCl2, 5 KCl, 1 Mg Cl2, 10 HEPES, 12 Dextrose; internal: 120 CsF, 30 CsCl, 10 EGTA, 5 HEPES, 5 NaF, 2 MgCl2.
# For all electrophysiology experiments, offline analysis was used to determine percent inhibition as a function of drug concentration. IC50 values were determined by fitting to the Hill equation.
# T1 sequence (Q15858 whole entry): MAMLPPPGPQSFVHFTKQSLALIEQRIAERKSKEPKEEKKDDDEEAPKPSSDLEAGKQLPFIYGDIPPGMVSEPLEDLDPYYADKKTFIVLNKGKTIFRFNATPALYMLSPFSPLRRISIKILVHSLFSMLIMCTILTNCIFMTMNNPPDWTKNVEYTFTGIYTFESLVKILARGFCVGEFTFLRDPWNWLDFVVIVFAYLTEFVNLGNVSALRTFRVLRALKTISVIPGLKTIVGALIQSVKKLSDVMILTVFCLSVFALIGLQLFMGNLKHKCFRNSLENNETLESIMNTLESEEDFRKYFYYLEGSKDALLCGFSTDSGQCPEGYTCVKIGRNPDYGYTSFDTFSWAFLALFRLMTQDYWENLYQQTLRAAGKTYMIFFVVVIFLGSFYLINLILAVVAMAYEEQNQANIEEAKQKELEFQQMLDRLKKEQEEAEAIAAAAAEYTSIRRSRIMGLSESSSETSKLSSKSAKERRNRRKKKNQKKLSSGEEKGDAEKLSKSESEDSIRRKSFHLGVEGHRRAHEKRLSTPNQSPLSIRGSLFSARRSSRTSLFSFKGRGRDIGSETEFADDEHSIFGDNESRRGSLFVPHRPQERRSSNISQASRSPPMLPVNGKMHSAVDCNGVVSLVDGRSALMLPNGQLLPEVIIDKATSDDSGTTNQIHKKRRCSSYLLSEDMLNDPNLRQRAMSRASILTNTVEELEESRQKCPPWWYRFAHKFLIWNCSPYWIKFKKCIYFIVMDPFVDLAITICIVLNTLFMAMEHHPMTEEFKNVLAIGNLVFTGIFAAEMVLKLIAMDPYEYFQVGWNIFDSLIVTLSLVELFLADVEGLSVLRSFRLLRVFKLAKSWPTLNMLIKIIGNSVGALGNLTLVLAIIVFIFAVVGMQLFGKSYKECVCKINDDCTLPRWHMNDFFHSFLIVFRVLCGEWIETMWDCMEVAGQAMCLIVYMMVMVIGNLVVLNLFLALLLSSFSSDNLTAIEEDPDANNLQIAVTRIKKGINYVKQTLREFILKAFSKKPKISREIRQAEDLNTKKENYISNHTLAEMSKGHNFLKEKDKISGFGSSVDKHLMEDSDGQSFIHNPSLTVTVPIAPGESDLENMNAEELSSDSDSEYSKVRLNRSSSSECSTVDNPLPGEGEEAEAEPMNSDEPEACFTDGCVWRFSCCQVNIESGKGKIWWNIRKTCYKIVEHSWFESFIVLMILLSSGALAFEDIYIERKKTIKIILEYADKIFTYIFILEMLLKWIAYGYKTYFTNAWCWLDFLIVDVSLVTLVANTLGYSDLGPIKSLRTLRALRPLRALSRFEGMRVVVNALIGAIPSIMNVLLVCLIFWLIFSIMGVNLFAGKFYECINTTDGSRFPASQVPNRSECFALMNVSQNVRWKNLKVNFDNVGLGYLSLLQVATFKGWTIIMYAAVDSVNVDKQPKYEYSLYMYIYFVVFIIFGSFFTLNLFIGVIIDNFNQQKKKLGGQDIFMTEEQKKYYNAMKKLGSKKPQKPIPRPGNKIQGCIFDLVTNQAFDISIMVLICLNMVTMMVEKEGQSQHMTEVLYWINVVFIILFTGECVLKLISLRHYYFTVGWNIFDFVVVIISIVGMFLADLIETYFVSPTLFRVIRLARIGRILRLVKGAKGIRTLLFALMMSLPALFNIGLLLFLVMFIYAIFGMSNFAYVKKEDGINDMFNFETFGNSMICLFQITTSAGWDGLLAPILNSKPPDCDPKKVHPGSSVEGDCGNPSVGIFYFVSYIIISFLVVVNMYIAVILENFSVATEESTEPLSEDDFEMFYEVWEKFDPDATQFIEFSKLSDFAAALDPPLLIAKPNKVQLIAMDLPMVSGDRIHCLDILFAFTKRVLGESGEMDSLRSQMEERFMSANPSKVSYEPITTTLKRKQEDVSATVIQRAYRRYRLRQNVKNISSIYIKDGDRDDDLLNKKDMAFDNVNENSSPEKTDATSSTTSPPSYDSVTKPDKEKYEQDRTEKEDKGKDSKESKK
row,SMILES,IC50 [nM]
1,"CC(CCCNc1cc(F)c(S(=O)(=O)Nc2nccs2)cc1Cl)NC[C@@H]1CCCN1 (single isomer, unassigned)",12

# Same assay, conditions: channels stably expressed in HEK 293 cells; double-pulse protocol, inactivated state block; read-out: potency for the Nav 1.7 sodium ion channel (IC50, as measured by IonWorks)
row,SMILES,IC50 [nM]
1,CC(CCCNc1cc(F)c(S(=O)(=O)Nc2nccs2)cc1Cl)NC[C@@H]1CCCN1 (mixture of isomers),11
2,"O=S(=O)(Nc1nccs1)c1cc(Cl)c(NCCCCNC[C@H]2CCCCN2)cc1F [Ex 1-05, 5-chloro-2-fluoro-4-[(4-{[(2R)-piperidin-2-ylmethyl]amino}butyl)amino]-N-1,3-thiazol-2-ylbenzenesulfonamide]",10
3,"O=S(=O)(Nc1nccs1)c1cc(Cl)c(NCCCCNC[C@@H]2CCCN2)cc1F [Ex 1-06, 5-chloro-2-fluoro-4-[(4-{[(2S)-pyrrolidin-2-yl-methyl]amino}butyl)-amino]-N-1,3-thiazol-2-yl-benzenesulfonamide]",15
4,"CC(C)(CN)NCCCCNc1cc(F)c(S(=O)(=O)Nc2nccs2)cc1Cl [Ex 1-10, 4-({4-[(2-amino-1,1-dimethylethyl)amino]-butyl}amino)-5-chloro-2-fluoro-N-1,3-thiazol-2-yl-benzenesulfonamide]",28
5,"CN(CCN)CCCCNc1cc(F)c(S(=O)(=O)Nc2nccs2)cc1Cl [Ex 1-15, 4-({4-[(2-aminoethyl) (methyl)amino]butyl}amino)-5-chloro-2-fluoro-N-1,3-thiazol-2-ylbenzenesulfonamide]",29
6,"N[C@H]1CCCC[C@H]1NCCCCNc1cc(F)c(S(=O)(=O)Nc2nccs2)cc1Cl [Ex 1-30, 4-[(4-{[(1R,2S)-2-aminocyclohexyl]amino}butyl)amino]-5-chloro-2-fluoro-N-1,3-thiazol-2-ylbenzenesulfonamide]",19
7,"O=S(=O)(Nc1nccs1)c1cc(Cl)c(NCCCCNCC2CNC2)cc1F [Ex 5-03, 4-((4-((azetidin-3-ylmethyl)amino)butyl)amino)-5-chloro-2-fluoro-N-(thiazol-2-yl)benzenesulfonamide]",34
8,CNCCNCCCCNc1cc(F)c(S(=O)(=O)Nc2nccs2)cc1Cl [Ex 5-04],12
9,"O=S(=O)(Nc1nccs1)c1cc(Cl)c(NCCCCNC[C@H]2CCCN2)cc1F [Ex 7-6, (R)-5-chloro-2-fluoro-4-((4-((pyrrolidin-2-ylmethyl)amino)butyl)amino)-N-(thiazol-2-yl)benzenesulfonamide]",34
10,"O=S(=O)(Nc1ncns1)c1cc(Cl)c(NCCCCNC[C@@H]2CCCN2)cc1F [Ex 7-8, 5-chloro-2-fluoro-4-[(4-{[(2S)-pyrrolidin-2-ylmethyl]amino}butyl)amino]-N-1,2,4-thiadiazol-5-ylbenzenesulfonamide]",10
11,"O=S(=O)(Nc1ncc(Cl)s1)c1cc(Cl)c(NCCCCNC[C@@H]2CCCN2)cc1F [Ex 7-9, 5-chloro-N-(5-chloro-1,3-thiazol-2-yl)-2-fluoro-4-[(4-{[(2S)-pyrrolidin-2-ylmethyl]amino}butyl)amino]benzenesulfonamide]",29
12,"O=S(=O)(Nc1nccs1)c1cc(Br)c(NCCCCNC[C@@H]2CCCN2)cc1F [Ex 7-10, 5-bromo-2-fluoro-4-[(4-{[(2S)-pyrrolidin-2-ylmethyl]amino}butyl)amino]-N-1,3-thiazol-2-ylbenzenesulfonamide]",16
13,"O=S(=O)(Nc1ncc(F)s1)c1cc(Cl)c(NCCCCNC[C@@H]2CCCN2)cc1F [Ex 7-11, 5-chloro-2-fluoro-N-(5-fluoro-1,3-thiazol-2-yl)-4-[(4-{[(2S)-pyrrolidin-2-ylmethyl]amino}butyl)amino]benzenesulfonamide]",9.9
14,"C[C@@H]1CN[C@H](CNCCCCNc2cc(F)c(S(=O)(=O)Nc3nccs3)cc2Cl)C1 [Ex 8-09, 5-chloro-2-fluoro-4-{[4-({[(2S,4S)-4-methylpyrrolidin-2-yl]-methyl}amino)butyl]amino}-N-1,3-thiazol-2-yl-benzenesulfonamide]",18
15,"C[C@H]1CC[C@@H](CNCCCCNc2cc(F)c(S(=O)(=O)Nc3nccs3)cc2Cl)N1 [Ex 8-10, 5-chloro-2-fluoro-4-{[4-({[(2S,5S)-5-methylpyrrolidin-2-yl]-methyl}amino)butyl]amino}-N-1,3-thiazol-2-yl-benzenesulfonamide]",16
16,"O=S(=O)(Nc1nccs1)c1cc(Cl)c(NCCCCNC[C@@H]2C[C@H](C(F)(F)F)CN2)cc1F [Ex 8-12, 5-chloro-2-fluoro-N-1,3-thiazol-2-yl-4-{[4-({[(2S,4S)-4-(trifluoromethyl)-pyrrolidin-2-yl]methyl}amino)butyl]amino}benzenesulfonamide]",21
17,"O=S(=O)(Nc1ncns1)c1cc(Cl)c(NCCCCNC[C@H]2CCN2)cc1F [Ex 13-02, 4-[(4-{[(2R)-azetidin-2-yl-methyl]-amino}butyl)amino]-5-chloro-2-fluoro-N-1,2,4-thiadiazol-5-yl-benzene-sulfonamide]",14

row,SMILES,IC50 [nM]
1,"O=S(=O)(Nc1ncns1)c1cc(Cl)c(NCCCCNC[C@@H]2CCN2)cc1F [Ex 14-04, 4-[(4-{[(2S)-azetidin-2-yl-methyl]-amino}butyl)amino]-5-chloro-2-fluoro-N-1,2,4-thiadiazol-5-ylbenzene-sulfonamide]",14
2,"C[C@H](N)CNCCCCNc1cc(F)c(S(=O)(=O)Nc2ncns2)cc1Cl [Ex 15-05, 4-[(4-{[(2S)-2-aminopropyl]amino}butyl)amino]-5-chloro-2-fluoro-N-1,2,4-thiadiazol-5-ylbenzenesulfonamide]",12
3,"O=S(=O)(Nc1ncns1)c1cc(Cl)c(NCCCCNC2CNC2)cc1F [Ex 16-01, 4-{[4-(azetidin-3-ylamino)-butyl]-amino}-5-chloro-2-fluoro-N-1,2,4-thiadiazol-5-ylbenzenesulfonamide]",15
4,"O=S(=O)(Nc1ncc(F)s1)c1cc(Br)c(NCCCCNC[C@H]2CCCCN2)cc1F [Ex 16-04, 5-bromo-2-fluoro-N-(5-fluoro-1,3-thiazol-2-yl)-4-[(4-{[(2R)-piperidin-2-ylmethyl]amino}-butyl]amino]benzene-sulfonamide]",11
5,"C[C@H](CN)NCCCCNc1cc(F)c(S(=O)(=O)Nc2nccs2)cc1Cl [Ex 16-08, 4-[(4-{[(1R)-2-amino-1-methylethyl]-amino}butyl)-amino]-5-chloro-2-fluoro-N-1,3-thiazol-2-ylbenzenesulfonamide]",15
6,"O=S(=O)(Nc1ncns1)c1cc(Cl)c(NCCCCNC[C@H]2CCCCN2)cc1F [Ex 16-15, 5-chloro-2-fluoro-4-[(4-{[(2R)-piperidin-2-yl-methyl]amino}butyl)-amino]-N-1,2,4-thiadiazol-5-yl-benzenesulfonamide]",5.1
7,"O=S(=O)(Nc1ncc(F)s1)c1cc(Cl)c(NCCCCNCC[C@H]2CCCN2)cc1F [Ex 16-18, 5-chloro-2-fluoro-N-(5-fluoro-1,3-thiazol-2-yl)-4-{[4-({2-[(2R)-pyrrolidin-2yl]-ethyl}amino)butyl]-amino} benzenesulfonamide]",18
8,"O=S(=O)(Nc1ncns1)c1cc(Cl)c(NCCCCN[C@@H]2CCNC2)cc1F [Ex 16-19, 5-chloro-2-fluoro-4-({4-[(3R)-pyrrolidin-3-ylamino]-butyl}amino)-N-1,2,4-thiadiazol-5-ylbenzene-sulfonamide]",11
9,"C[C@H](CCN)NCCCCNc1cc(F)c(S(=O)(=O)Nc2nccs2)cc1Cl [Ex 16-26, 4-[(4-{[(1R)-3-amino-1-methylpropyl]amino}butyl)amino]-5-chloro-2-fluoro-N-1,3-thiazol-2-ylbenzene-sulfonamide]",28
10,"C[C@H](CCN)NCCCCNc1cc(F)c(S(=O)(=O)Nc2ncns2)cc1Cl [Ex 16-29, 4-[(4-{[(1R)-3-amino-1-methylpropyl]amino}butyl)-amino]-5-chloro-2-fluoro-N-1,2,4-thiadiazol-5-yl-benzenesulfonamide]",56
11,"NCCNCCCCNc1cc(F)c(S(=O)(=O)Nc2ncns2)cc1Cl [Ex 16-33, 4-({4-[(2-aminoethyl)-amino]butyl}amino)-5-chloro-2-fluoro-N-1,2,4-thiadiazol-5-ylbenzene-sulfonamide]",12
12,"C[C@@H](N)CCNCCCCNc1cc(F)c(S(=O)(=O)Nc2nccs2)cc1Cl [Ex 16-34, 4-[(4-{[(3R)-3-aminobutyl]-amino}butyl)amino]-5-chloro-2-fluoro-N-1,3-thiazol-2-ylbenzene-sulfonamide]",29
13,"NCCCNCCCCNc1cc(F)c(S(=O)(=O)Nc2ncc(F)s2)cc1Cl [Ex 16-35, 4-({4[(3-aminopropyl)amino]-butyl}amino)-5-chloro-2-fluoro-N-(5-fluoro-1,3-thiazol-2-yl)benzene-sulfonamide]",14
14,"O=S(=O)(Nc1ncc(F)s1)c1cc(Br)c(NCCCCN[C@@H]2CCNC2)cc1F [Ex 16-36, 5-bromo-2-fluoro-N-(5-fluoro-1,3-thiazol-2-yl)-4-({4-[(3R)-pyrrolidin-3-yl-amino]butyl}amino) benzene-sulfonamide]",15
15,"O=S(=O)(Nc1nccs1)c1cc(Br)c(NCCCCN[C@@H]2CCNC2)cc1F [Ex 16-37, 5-bromo-2-fluoro-4-({4-[(3R)-pyrrolidin-3-ylamino]-butyl}amino)-N-1,3-thiazol-2-ylbenzenesulfonamide]",19
16,"O=S(=O)(Nc1nccs1)c1cc(Cl)c(NCCCCN[C@H]2CCCCNC2)cc1F [Ex 16-41, (S)-4-{[4-(azepan-3-ylamino)-butyl]amino}-5-chloro-2-fluoro-N-1,3-thiazol-2-yl-benzenesulfonamide]",14
